Experimental data reported in patent US7754228B2, “Cytotoxic T-cell epitopes from Chlamydia” (Novartis Vaccines and Diagnostics, Srl, priority 2002, dated 2010).
“Also recorded” adds a separate entry of the source. Read-outs that look alike come from different tables or passages of the source.

Legend:
[1] = test system: HLA A2; type: binding, human; settings: for Mean 1 / Mean 2 / binding to HLA A2 (in words): RMA-S/A2 cells; for Mean 1: peptide and only anti-mouse secondary antibody; for Mean 1 / Mean 2: FACS mean; for Mean 2: peptide, anti-A2 Mab BB7.2 and secondary antibody; for binding to HLA A2 (in words): in vitro binding assay
[2] = test system: CD8^+ cells from immunised transgenic mice; experiment: IFN-γ/CD8+ ELISpot assay after DNA immunisation of HLA-A2 transgenic mice; type: cell-based; settings: for Mean IFN-γ^+ve per 10^6 CD8^+ve cells: after subtraction of HepB negative controls; for number of IFN-γ secreting CD8^+ (in words): spleen cells of DNA immunised transgenic mice
Excerpt: Full-length C.pneumoniae and C.trachomatis genes encoding the polypeptides which contain CTL epitopes were amplified by PCR using the primers in Table 4 and cloned into plasmid expression vector pCMVKASF2-120, from which the gp120 sequence had been previously excised by treatment with NheI and SalI restriction enzymes. The chlamydial sequences were thus downstream of the tPA signal sequence.
The plasmids were used for DNA immunisation of transgenic mice expressing the human HLA-A2 gene which express a chimeric class I molecule composed of the α1 and α2 domains of HLA-A2.1 and the α3 transmembrane and cytoplasmic domains of H-2K^b.
Mice were immunised at days 0, 21 and 35 by intramuscular injection of 50μg endotoxin-free recombinant plasmid DNA. One week after the third immunisation, the animals were sacrificed, spleens were removed and CD8+ cells were purified by means of CD8α(Ly-2) Microbeads and LS Separation Columns following the technical procedures described by Miltenyi Biotec™. These CD8^+ cells were tested by Elispot assay to detect cells which secrete IFN-γ in response to given peptides. The Elispot procedure was as follows: • 1. 96-well nitrocellulose plates are coated with 5 μg/ml anti-mouse IFN-γ in 100 μl carbonate buffer, pH 9.2. Cover plate with lid and incubate overnight (o.n.) at 4° C. • 2. Discard coating antibody. Rinse plates 3 times with PBS (200 μl per rinse). Shake excess liquid from plate and pat bottom of plate with dry absorbent paper. • 3. Add 200 μl blocking solution (PBS-BSA 1%) to each well to saturate remaining binding sites and incubate 2 hours at 37° C. (or o.n. at 4° C.). • 4. Discard blocking solution, wash plate 3 times with PBS (200 μl per rinse). Shake excess liquid from plate and pat bottom of plate with dry absorbent paper. • 5. Add 100 μl complete medium and incubate 10 minutes at room temperature. Discard liquid and pat bottom of plate with dry absorbent paper. • 6. Add cells (5×10^4 CD8^+ from immunised transgenic mice and 2×10^5 irradiated spleen cells from non-immunised transgenic mice) with complete medium supplemented with the tested peptide (5, 10 or 20 μg/ml) and IL-2 (10 units/ml). • 7. Incubate 20-24 hours in a humidified 37° C., 5% CO2 incubator. • 8. Take off medium, add 200 μl per wash of ice-cold distilled water and incubate on ice for 10 minutes. Then wash ten times in wash buffer (PBS-Tween 0.05%), 2001 per wash. Shake excess liquid from plate and pat bottom of plate with dry absorbent paper. • 9. To detect IFN-γ spots, add 1 μg/ml biotinylated anti mouse IFN-γ in 100 μl in Elispot dilution buffer (PBS-BSA 1%) and incubate 2 hours at 37° C. • 10. Wash plate 3 times with wash buffer (PBS-Tween 0.05%), 200 μl per wash and 3 times with PBS without Tween (200 μl). Shake excess liquid from plate and pat bottom of plate with dry absorbent paper. • 11. Add 100 μl 1:2000 dilution of alkaline phosphatase-coupled avidin in PBS-BSA 1% (Sigma). Incubate 1 hour at 37° C. • 12. Wash plate 3 times with wash buffer (PBS-Tween 0.05%), 2001il per wash and 3 times with PBS without Tween (200 μl). Shake excess liquid from plate and pat bottom of plate with dry absorbent paper. • 13. Spots of […] secreting cells are visualised by adding 50 μl of the ready-to-use substrate BCIP/NBT (Sigma) dissolved in water. The reaction is stopped after 45 minutes at 37° C. by several washes with distilled water.
Values are shown after subtraction of HepB negative controls.

Sequence	High - B [1]	Δ Mean [1]	Mean 1 ([1]; 10 μM peptide)	Mean 2 ([1]; 10 μM peptide)	binding to HLA A2 (in words) [1]	Mean IFN-γ^+ve per 10^6 CD8^+ve cells ([2]; peptide dose 5 μg/ml) [per 10^6 CD8^+ve cells]	Mean IFN-γ^+ve per 10^6 CD8^+ve cells ([2]; peptide dose 10 μg/ml) [per 10^6 CD8^+ve cells]	Mean IFN-γ^+ve per 10^6 CD8^+ve cells ([2]; peptide dose 20 μg/ml) [per 10^6 CD8^+ve cells]	number of IFN-γ secreting CD8^+ (in words) [2]	ΔMean at high concentrations of peptide (in words) ([1]; high peptide concentrations, non-homogeneous fluorescent signal, most likely non-specific effects)	Mean 1 ([1]; 100 μM peptide)	Mean 2 ([1]; 100 μM peptide)
GLTEEIDYV [CH10]	139	385	202	587	bind to HLA A2	226	233.3	200	well above background levels			
SITVFRWLV [CH58]	−15	145	155	300	negative results	1046	980	986	well above background levels; also recorded: strongly positive			
YLLEEIYTV [CH6]	130	376	198	574	bind to HLA A2	106.8	486.8	266.6	well above background levels			
YMDNNLFYV [CH7]	102	348	203	551	bind to HLA A2	366	400	433	well above background levels	Very low ΔMean values		
YVFDRILKV [CH13]	119	365			bind to HLA A2	466.8	700	540	well above background levels		217	582
